Results as given in US5461057A, “Hydro-ethano-indeno-pyridines” (priority 1994, dated 1995).

Experiments:
[1] = system: histamine-induced dyspnea; assay: Bronchodilator (in vivo) Guinea Pig Dyspnea; settings: oral
Procedure: Unanesthetized guinea pigs (250-350 g), fasted overnight were placed in individual closed aerosol chambers which were connected to a Monoghan Ultrasonic nebulizer. The nebulizer can deliver an ultrasonic fog of uniform particles in a range of 1-8 microns. A 0.1% solution of histamine is aerosolized into the chambers causing the guinea pigs to develop dyspnea. The test drug was given orally one hour before the histamine challenge and the onset of dyspnea was recorded. Saline control animals developed dyspnea within 90-120 seconds of aerosol exposure. […] The data was expressed as the number tested over the number survived. The model was sensitive to bronchodilator and H1 antihistamine activity. Further information relating this test can be obtained from the following two publications which are hereby incorporated by reference: Dungan, K. W. and Lish, P. M. J Allergy 32:139-151 (1961). and Lish, P. M., Robbins, S. I. and Petres E. L. J. Pharmacol. Exp. Therap. 153 L 1538 (1966 ).

pulmonary resistance = assay: Pulmonary Resistance in the Anesthetized Rat; assay type: in vivo; settings: 0.5 mpk, i.v., mean of 5 animals, % decrease in pre-drug baseline resistance
Procedure: Rats (400-500 g) anesthetized with dialurethane were surgically prepared with tracheal and esophageal catheters. These catheters were connected to pressure transducers for recording of air flow, tracheal and esophageal pressures. These pressures formed the basis for measurement of pulmonary resistance. Inhibition of pulmonary resistance is a reflection of bronchodilation.
All compounds were tested i. v. in 5 separate animals. All data are expressed in % decrease in the pre-drug baseline resistance and each number given is the mean of the 5 animals tested.
The model is sensitive to bronchodilator activity.
Further information relating this test can be obtained from the following publications which are hereby incorporated by reference: Comroe et al, J. Appl. Physio. 4:439-44 (1959); Dungan et al J. Pharmacol. Exp. Therap. 164:290-301(1968); and Mead, J. et al. J. Appl. Physio. 5:779-796 (1953).

[2] = system: acetic acid-induced writhing; assay: Acetic Acid Writhing Test in Mice; assay type: in vivo, mouse; settings: Mus musculus, po, read-out: WRITH ED50
Source text: The blockade of writhing induced by the intraperitoneal injection of acetic acid is an established experimental animal model for the screening of antinociceptive drugs (drugs which prevent the appreciation or transmission of pain sensations).
The procedure for the Acetic Acid Writhing Test in Mice is set forth in Hendershot et al, J. Pharmacol. Exp. Therap. 125:237, (1959); Koster et al., Fed. Proc. 18:412, (1959); and international application PCT/US91/06705, filed 20 Sep. 1991, which are hereby incorporated by reference.
The results for this test are given below in the units of mg/kg which is also abbreviated in this specification as mpk. The results for this test are given as effective doses (ED50 's).

TBZ-induced ptosis = assay: Effects on tetrabenazine (TBZ)-induced ptosis in mice; assay type: in vivo, mouse; settings: Mus musculus, po
Source text: Clinically active antidepressant drugs are known to block TBZ-induced ptosis in mice (See Psychosomatic Medicine, Nodine and Moyer, Eds. Lea and Febiger, Philadelphia, 1962, pp 683-90, which is hereby incorporated by reference). Activity in this test is used to predict anti-depressant activity in man.
The procedure for the TBZ-Induced Ptosis Test in Mice is set forth in Psychosomatic Medicine, Nodine and Moyer, Eds. Lea and Febiger, which is hereby incorporated by reference and in PCT/US91/06705, filed 20 Sep. 1991, which is mentioned above.
(§1) The results for this test are given below as ED50 's in the units of mg/kg.
TBZ refers to the test of effects on tetrabenazine induced ptosis in mice, p.o.;

[3] = system: muricidal (mouse-killing) behavior; assay: Effects on muricidal behavior in rats; assay type: in vivo, rat; settings: Rattus norvegicus, read-out: MUR ED50
Source text: Blockade of muricidal (mouse-killing) behavior in rats is used as a measure of evaluating the anti-depressant activity of drugs, and the procedure for carrying out this test is set forth in Int. J. Neuro-pharmacal., 5, 405-411 (1966) are hereby incorporated by reference, and in PCT/US91/06705, filed 20 Sep. 1991, which is mentioned above.
as §1
MUR refers to the test on the effects on muricidal behavior in rats;

metrazole = assay: Anti-metrazole test in mice; assay type: in vivo, mouse; settings: Mus musculus, read-out: MTZ ED50
Procedure: The anti-metrazole test in mice was carried out as described in Everett et al, J. Pharmacol. Exp. Therap. 81:402-407 (1944); which is hereby incorporated by reference.
(§2) The results for this test are given below as ED50's in the units of mg/kg.

[4] = system: LOX human melanoma cell adhesion to human fibronectin; assay: LOX melanoma cell adhesion to fibronectin; assay type: cell-based; settings: Homo sapiens, LOX; for inhibition at 10 µM: read-out: % Inhibition at 10 μM; for inhibition at 50 µM: read-out: % Inhibition at 50 μM; for IC50: Table 4, 1 hour adhesion, read-out: LOX FN IC50
Procedure: (§3) Adhesion assays were run essentially as described previously (Pai et al., J. Biomed. Res. 2: 53, 1992). 96-well plates were coated with human fibronectin (140 ng/well), human vitronectin (75 ng/well), human collagen I (100 ng/well), human collagen IV (100 ng/well), human fibrinogen (1 μg/well), murine laminin (600 ng/well), or polylysine, and incubated overnight in a humidified 37° C. incubator. Excess fibronectin or other substrate was then removed and 0.2 ml of 2 mg/ml bovine serum albumin (BSA)in Dulbecco's phosphate-buffered saline (DPBS) was added to each well, incubated for 2 hours at 37° C., and removed. LOX human melanoma cells, M27 murine lung carcinoma cells or B16F10 mouse melanoma cells were detached from tissue culture flasks with RPMI medium containing 0.2M urea and 10 mM EDTA, and 0.18 ml of cells were added to each well to a final cell concentration of 1×10^5 cells/well. For inhibition studies 20 μl of 10× compound was added to the wells prior to cell addition. Cells were allowed to adhere for 1 hour at 37° C. The wells were then gently washed twice with 0.2 ml DPBS. The fluorescent dye calcein AM (Molecular Probes, Eugene Oreg.) in DPBS (0.1 ml of 1 μM) was added to each well, and the plates were incubated for 1 hour at room temperature. Adherent cells were quantitated by reading the fluorescence on a Cytofluor 2300 fluorescent plate reader (Millipore) at 485 nm excitation and 530 nm emission.
LOX FN-IC50 value for inhibition of adhesion of LOX human melanoma cells to fibronectin coated on a plastic surface.

[5] = Calcein cytotoxicity assay; assay type: cell-based; settings: human, lox melanoma cells; 2 hours, calcein AM assay; read-out: 2 Hr Tox LD50
Procedure: LOX human melanoma cells were detached from tissue culture flasks with RPMI medium containing 0.2M urea and 10 mM EDTA, and 0.18 ml of cells were added to each well to a final cell concentration of 5×10^4 cells/well. 20 μl of 10× compound was added to the wells prior to cell addition. Cells were incubated with the compound at 37° C. for 1 hour or 5 hour as indicated. Calcein AM in DPBS (0.02 ml of 5 μM) was added to each well, and the plates were incubated for an additional 1 hour at room temperature. Viable cells were quantitated by reading the fluorescence on a Cytofluor 2300 fluorescent plate reader at 485 nm excitation and 530 nm emission.

[6] = system: LOX human melanoma cell adhesion to polylysine; assay: LOX melanoma cell adhesion to polylysine; assay type: cell-based; settings: read-out: Poly Lys IC50
Procedure: as §3

methamphetamine toxicity = assay: Methamphetamine toxicity test in mice; assay type: in vivo; settings: Mus musculus, read-out: METHA ED50
Procedure: The methamphetamine toxicity test in mice was carried out as described in Burn et al, Arch. Int. Pharmacodyn 113:290-295, (1958); and Coscia et al, Arzneim-Forsch (Drug Research) 25:1436-1442, (1975); which are hereby incorporated by reference.
as §2
METHA refers to the methamphetamine toxicity test in mice;

[7] = 100 mg/kg, one hour before histamine challenge

Structure (SMILES) | DYSP survivors [1, 7] | Pulmonary Resistance in Rats, % Inhibition (pulmonary resistance) [%] | ED50 [2] [mg/kg] | ED50 (TBZ-induced ptosis) [mg/kg] | ED50 [3] [mg/kg] | ED50 (metrazole) [mg/kg] | inhibition at 10 µM [4] [%] | inhibition at 50 µM [4] [%] | IC50 [4] [µM] | CC50 at 2 h [5] [µM] | IC50 [6] [µM] | ED50 (methamphetamine toxicity) [mg/kg] | inhibition in vivo at 0.5 mg/kg (pulmonary resistance; Rattus norvegicus, iv, read-out: Pulmonary Resistance in Rats, % Inhibition) [%] | DYSP survivors ([1]; 10 mg/kg, one hour before histamine challenge) | DYSP survivors ([1]; 20 mg/kg, one hour before histamine challenge) | DYSP survivors ([1]; 50 mg/kg, one hour before histamine challenge) | DYSP survivors ([1]; dose not given)
c1ccc(C2=C3CC4CCC(N4)C3c3ccccc32)cc1 (stereo not shown) [Q] | 0/3 | 24 | > 30 | 3.6 | > 10 | > 30 | 0.1 | 97.1 | 19.1 | 66.7 | 83.6 |  |  |  |  |  | 
COc1ccc(C2=C3CC4CCC(C3c3ccccc32)N4C)cc1 (stereo not shown) [R] | 1/3 | 26 | > 30 | 17.3 |  | > 30 | -27.3 | 97.1 | 15 | 138 | 112 | > 30 |  |  |  |  | 
COc1ccc2c(c1)C1C3CCC(CC1C2(O)c1ccccc1)N3C (stereo not shown) [UU] |  |  | 17.3 | > 30 |  | > 30 | 10.3 | 15.9 |  |  |  | > 30 | 2 |  |  |  | 
COc1ccc2c(c1)C(c1ccccc1)=C1CC3CCC(C12)N3C (stereo not shown) [V] | 0/3 |  |  | > 30 |  |  |  |  |  |  |  |  |  |  |  |  | 
CN1C2CCC1C1=C(C2)C(c2ccc(F)cc2)c2ccccc21 (stereo not shown) [W] | 3/3 | 21 | 10.7 | > 30 |  | > 30 | 36.3 | 100 | 17.4 | 103 | 78.3 | 8.9 |  | 1/3 | 2/3 | 2/3 | 
COc1ccc(C2C3=C(c4ccccc42)C2CCC(C3)N2C)cc1 (stereo not shown) [Y] |  |  |  | 0.35 | > 20 |  | -1.2 | 98.2 | 21.6 | 63.6 | 105 | > 30 |  |  |  |  | 2/3
COc1ccc2c(c1)C1=C(CC3CCC1N3C)C2c1ccccc1 (stereo not shown) [Z] | 0/3 |  | 17.3 | > 30 |  | > 30 | -27.6 | 67 | 28.1 | > 250 | > 250 | > 30 |  |  |  |  | 
